Results reported in paper PMC9026967, “Discovery of a Novel Inhibitor Structure of Mycobacterium tuberculosis Isocitrate Lyase” (Molecules, 2022).
Where two headings read alike, the source gives them in different places.

What was measured:
[1] = target: T1, M. tuberculosis isocitrate lyase (MtICL) (Mycobacterium tuberculosis, UniProt P9WKK7); assay: biochemical
T1 construct: gene icl
T1 sequence (P9WKK7 1-428): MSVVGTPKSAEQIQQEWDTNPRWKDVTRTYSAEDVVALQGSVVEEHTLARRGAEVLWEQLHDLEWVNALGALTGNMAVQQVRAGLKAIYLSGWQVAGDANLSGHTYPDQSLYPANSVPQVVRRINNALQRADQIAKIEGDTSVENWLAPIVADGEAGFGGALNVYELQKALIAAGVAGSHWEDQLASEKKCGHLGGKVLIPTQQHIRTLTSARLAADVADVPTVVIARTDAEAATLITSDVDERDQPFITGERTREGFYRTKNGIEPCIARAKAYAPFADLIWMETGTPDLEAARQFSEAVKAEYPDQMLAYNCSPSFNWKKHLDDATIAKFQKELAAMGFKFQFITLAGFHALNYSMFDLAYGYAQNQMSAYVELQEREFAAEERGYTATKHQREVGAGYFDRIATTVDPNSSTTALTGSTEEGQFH

[2] = target: T1, M. tuberculosis isocitrate lyase (MtICL); assay: biochemical; remark: listed apart in the source

`C=C(CC(=O)O)C(=O)O` [IA, itaconic acid] gave an IC50 [1] of 38.6 ± 0.8 µM.
`O=C(O)C(=O)CBr` [3-BP, 3-bromopyruvic acid] was tested, and the IC50 [1] was 63.6 ± 2.8 µM.
`O=c1ccc2ccc(O)c(O)c2o1` [MOL005118, Daphnetin] gave an IC50 [2] of 24.4 µM.
